Consider 22 compounds from US20240246964A1 (Arbutus Biopharma Corporation, priority 2021, published 2024).

A value given as a limit tells only on which side of the number the result lay.

In this assay the target is human PD-L1 (Homo sapiens (Human), UniProt Q9NZQ7). Kind of assay: T cell activation luciferase reporter cell culture system (T Cell Activation Assay). The assay is classed as cell-based. The following applies: luciferase reporter assay; PD-L1 aAPC/CHO-K1 cells with PD-1 effector Jurkat T cells.
Sequence of human PD-L1 (Q9NZQ7 19-290): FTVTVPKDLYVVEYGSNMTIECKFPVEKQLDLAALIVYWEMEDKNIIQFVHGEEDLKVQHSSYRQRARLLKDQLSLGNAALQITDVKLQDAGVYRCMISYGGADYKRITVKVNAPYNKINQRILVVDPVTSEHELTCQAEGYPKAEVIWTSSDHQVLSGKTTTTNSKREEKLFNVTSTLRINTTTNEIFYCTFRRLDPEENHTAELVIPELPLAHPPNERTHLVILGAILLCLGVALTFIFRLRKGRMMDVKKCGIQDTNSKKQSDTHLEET
In general, EC50 refers to the concentration giving half of the maximal effect. The compound `COc1nc(-c2cccc(-c3ccnc(-c4ccc5c(c4)CCC[C@H]5NC[C@@H]4CCC(=O)N4)c3Cl)c2Cl)ccc1CN[C@@H](CCO)C(=O)O` [Example 265, ((6-(2-Chloro-3-(3-chloro-2-((R)-5-((((S)-5-oxopyrrolidin-2-yl)methyl)amino)-5,6,7,8-tetrahydronaphthalen-2-yl)pyridin-4-yl)phenyl)-2-methoxypyridin-3-yl)methyl)-L-homoserine] returned an EC50 of 368 nM.

`COc1cc(-c2nccc(-c3cccc(-c4ccc(CNCCO)c(OC)n4)c3Cl)c2Cl)cc2c1CN(CCC1CCNCC1)CC2` [Cmpd 85, 2-(((6-(2-chloro-3-(3-chloro-2-(8-methoxy-2-(2-(piperidin-4-yl)ethyl)-1,2,3,4-tetrahydroisoquinolin-6-yl)pyridin-4-yl)phenyl)-2-methoxypyridin-3-yl)methyl)amino)ethan-1-ol]: the response was half-maximal at 142 nM (EC50).

The compound `COc1cc(-c2cccc(-c3ccnc(-c4ccc5c(c4)CN(CCNC[C@@H]4CCC(=O)N4)C5=O)c3Cl)c2Cl)cc(F)c1CNC[C@@H]1CCC(=O)N1` [Example 242, 5-(3-Chloro-4-(2-chloro-3′-fluoro-5′-methoxy-4′-(((((S)-5-oxopyrrolidin-2-yl)methyl)amino)methyl)-[1,1′-biphenyl]-3-yl)pyridin-2-yl)-2-(2-((((S)-5-oxopyrrolidin-2-yl)methyl)amino)ethyl)isoindolin-1-one] yielded an EC50 of 437 nM.

`COc1cc(-c2nccc(-c3cccc(-c4ccc(CN5CC6(C5)CN(C(C)=O)C6)c(OC)n4)c3C)c2Cl)ccc1CN1CC2(C1)CN(C(C)=O)C2` [Example 409, 1-(6-((6-(3-(2-(4-((6-acetyl-2,6-diazaspiro[3.3]heptan-2-yl)methyl)-3-methoxyphenyl)-3-chloropyridin-4-yl)-2-methylphenyl)-2-methoxypyridin-3-yl)methyl)-2,6-diazaspiro[3.3]heptan-2-yl)ethan-1-one] showed an EC50 of 274 nM.

Compound `COc1nc(-c2ccnc(-c3cccc4c3CC[C@@H]4Oc3nc(OC)c(CNC[C@H](C)O)cc3C(F)(F)F)c2Cl)ccc1CN1CC2(CNC(=O)C2)C1` [Example 553, 2-((3′-Chloro-2′-((S)-1-((5-((((S)-2-hydroxypropyl)amino)methyl)-6-methoxy-3-(trifluoromethyl)pyridin-2-yl)oxy)-2,3-dihydro-1H-inden-4-yl)-6-methoxy-[2,4′-bipyridin]-5-yl)methyl)-2,6-diazaspiro[3.4]octan-7-one] came in with an EC50 of 53 nM.

As for `COc1cc(-c2nccc(-c3cccc(-c4ccc(CN5CC6(C5)CN(C(C)=O)C6)c(OC)n4)c3Cl)c2Cl)ccc1CNC1CCOCC1` [Example 511, 1-(6-((6-(2-Chloro-3-(3-chloro-2-(3-methoxy-4-(((tetrahydro-2H-pyran-4-yl)amino)methyl)phenyl)pyridin-4-yl)phenyl)-2-methoxypyridin-3-yl)methyl)-2,6-diazaspiro[3.3]heptan-2-yl)ethan-1-one], the EC50 was determined as 20.7 nM.

The compound `COc1cc(-c2nccc(-c3cccc(-c4ccc(CNC5CCN(C(C)=O)CC5)c(OC)n4)c3Cl)c2C)ccc1CNC1CCN(C(C)=O)CC1` [Example 271, 1-(4-(((6-(3-(2-(4-(((1-Acetylpiperidin-4-yl)amino)methyl)-3-methoxyphenyl)-3-methylpyridin-4-yl)-2-chlorophenyl)-2-methoxypyridin-3-yl)methyl)amino)piperidin-1-yl)ethan-1-one] had an EC50 of 183 nM.

The compound `COc1cc(-c2nccc(-c3cccc(-c4ccc(CNC(C)C)c(OC)n4)c3Cl)c2Cl)ccc1CNC(C)C` [Example 514, N-((6-(2-Chloro-3-(3-chloro-2-(4-((isopropylamino)methyl)-3-methoxyphenyl)pyridin-4-yl)phenyl)-2-methoxypyridin-3-yl)methyl)propan-2-amine] had an EC50 of 94.5 nM.

As to `COc1cc(-c2nccc(-c3cccc(-c4ccc(CNC[C@@H]5CCC(=O)N5)c(OC)n4)c3Cl)c2Cl)cc2c1CCN(CC(C)(C)O)C2` [Cmpd 45, (S)-5-((((6-(2-chloro-3-(3-chloro-2-(2-(2-hydroxy-2-methylpropyl)-5-methoxy-1,2,3,4-tetrahydroisoquinolin-7-yl)pyridin-4-yl)phenyl)-2-methoxypyridin-3-yl)methyl)amino)methyl)pyrrolidin-2-one], a half-maximal effect (EC50) was put at 892 nM.

Compound `COc1nc(-c2cccc(-c3ccnc(-c4cc5c(=O)n(C)c(CNC6CC(C)(O)C6)nn5c4)c3Cl)c2Cl)ccc1CNC[C@@H]1CCC(=O)N1` (stereo partly drawn) [Cmpd 102, (S)-6-(3-chloro-4-(2-chloro-3-(6-methoxy-5-((((5-oxopyrrolidin-2-yl)methyl)amino)methyl)pyridin-2-yl)phenyl)pyridin-2-yl)-2-(((3-hydroxy-3-methylcyclobutyl)amino)methyl)-3-methylpyrrolo[2,1-f][1,2,4]triazin-4(3H)-one] registered an EC50 of 342 nM.

As to `COc1cc(-c2nccc(-c3cccc(-c4ccc(CN5CC6(CNC(=O)N6)C5)c(OC)n4)c3Cl)c2Cl)ccc1CNC1CCN(C(C)=O)CC1` [Example 526, 2-((6-(3-(2-(4-(((1-Acetylpiperidin-4-yl)amino)methyl)-3-methoxyphenyl)-3-chloropyridin-4-yl)-2-chlorophenyl)-2-methoxypyridin-3-yl)methyl)-2,5,7-triazaspiro[3.4]octan-6-one], the EC50 stood at 30.3 nM.

`COc1cc(-c2nccc(-c3cccc(-c4ccc(CN5CC6(CC(=O)N(C)C6)C5)c(OC)n4)c3Cl)c2Cl)ccc1CN1CC2(CC(=O)N(C)C2)C1` [Example 571, 2-(4-(3-chloro-4-(2-chloro-3-(6-methoxy-5-((6-methyl-7-oxo-2,6-diazaspiro[3.4]octan-2-yl)methyl)pyridin-2-yl)phenyl)pyridin-2-yl)-2-methoxybenzyl)-6-methyl-2,6-diazaspiro[3.4]octan-7-one] gave an EC50 of 87.5 nM.

As for `COc1cc(-c2nccc(-c3cccc(-c4ccc(CNC[C@@H]5CCC(=O)N5)c(OC)n4)c3Cl)c2Cl)ccc1CN1CC2(CNC(=O)C2)C1` [Cmpd 88, (S)-2-(4-(3-chloro-4-(2-chloro-3-(6-methoxy-5-((((5-oxopyrrolidin-2-yl)methyl)amino)methyl)pyridin-2-yl)phenyl)pyridin-2-yl)-2-methoxybenzyl)-2,6-diazaspiro[3.4]octan-7-one], the EC50 was 24.9 nM.

For `COc1cc(-c2nccc(-c3cccc(-c4ccc(CN5CC6(C5)CN(C(C)=O)C6)c(OC)n4)c3Cl)c2Cl)ccc1CN1CCC(NC(C)=O)CC1` [Example 402, N-(1-(4-(4-(3-(5-((6-acetyl-2,6-diazaspiro[3.3]heptan-2-yl)methyl)-6-methoxypyridin-2-yl)-2-chlorophenyl)-3-chloropyridin-2-yl)-2-methoxybenzyl)piperidin-4-yl)acetamide], the EC50 came out at 44.6 nM.

Turning to `COc1nc(-c2ccnc(-c3cccc4c3CC[C@@H]4Oc3nc(OC)c(CN4CC5(C4)CN(C(C)=O)C5)cc3C(F)(F)F)c2Cl)ccc1CN1CC2(C1)CN(C(C)=O)C2` [Example 248, (S)-1-(6-((6-((4-(5-((6-Acetyl-2,6-diazaspiro[3.3]heptan-2-yl)methyl)-3′-chloro-6-methoxy-[2,4′-bipyridin]-2′-yl)-2,3-dihydro-1H-inden-1-yl)oxy)-2-methoxy-5-(trifluoromethyl)pyridin-3-yl)methyl)-2,6-diazaspiro[3.3]heptan-2-yl)ethan-1-one], the EC50 is 596 nM.

In turn, `COc1cc(-c2nccc(-c3cccc(-c4ccc(CNC[C@@H]5CCC(=O)N5)c(OC)n4)c3Cl)c2Cl)cc2c1CN(C[C@H]1C[C@@H](O)C1)CC2` [Cmpd 134] gave an EC50 of 23 nM.

Turning to `COc1cc(-c2nccc(-c3cccc(-c4ccc(CNC5CCN(c6ncccc6Cl)CC5)c(OC)n4)c3Cl)c2Cl)ccc1CNC1CCN(c2ncccc2Cl)CC1` [Example 445, N-((6-(2-Chloro-3-(3-chloro-2-(4-(((1-(3-chloropyridin-2-yl)piperidin-4-yl)amino)methyl)-3-methoxyphenyl)pyridin-4-yl)phenyl)-2-methoxypyridin-3-yl)methyl)-1-(3-chloropyridin-2-yl)piperidin-4-amine], the EC50 was ≥ 10000 nM.

Regarding `COc1cc(-c2nccc(-c3cccc(NC(=O)c4ccc(CN5CC6(COC6)C5)cn4)c3Cl)c2Cl)ccc1CN1CC2(COC2)C1` [Example 701, 5-((2-Oxa-6-azaspiro[3.3]heptan-6-yl)methyl)-N-(3-(2-(4-((2-oxa-6-azaspiro[3.3]heptan-6-yl)methyl)-3-methoxyphenyl)-3-chloropyridin-4-yl)-2-chlorophenyl)picolinamide], the EC50 is 410 nM.

Compound `COc1cc(-c2nccc(-c3cccc(-c4ccc(CN5CC6(CC(O)C6)C5)c(OC)n4)c3Cl)c2Cl)ccc1CN1CC2(CNC(=O)C2)C1` [Example 521, 2-(4-(3-Chloro-4-(2-chloro-3-(5-((6-hydroxy-2-azaspiro[3.3]heptan-2-yl)methyl)-6-methoxypyridin-2-yl)phenyl)pyridin-2-yl)-2-methoxybenzyl)-2,6-diazaspiro[3.4]octan-7-one] gave an EC50 of 8.63 nM.

As for `COc1cc(-c2nccc(-c3cccc(-c4ccc(CNC5CCN(C(C)=O)CC5)c(OC)n4)c3C(F)(F)F)c2Cl)ccc1CNC1CCN(C(C)=O)CC1` [Example 528, 1-(4-(((6-(3-(2-(4-(((1-Acetylpiperidin-4-yl)amino)methyl)-3-methoxyphenyl)-3-chloropyridin-4-yl)-2-(trifluoromethyl)phenyl)-2-methoxypyridin-3-yl)methyl)amino)piperidin-1-yl)ethan-1-one], the EC50 was ≥ 10000 nM.

`COc1cc(-c2nccc(-c3cccc(NC(=O)c4ccc(CN5CC6(CNC(=O)C6)C5)cn4)c3C)c2Cl)ccc1CN1CC2(CNC(=O)C2)C1` [Example 590, N-(3-(3-Chloro-2-(3-methoxy-4-((7-oxo-2,6-diazaspiro[3.4]octan-2-yl)methyl)phenyl)pyridin-4-yl)-2-methylphenyl)-5-((7-oxo-2,6-diazaspiro[3.4]octan-2-yl)methyl)picolinamide] registered an EC50 of 1200 nM.

The compound `COc1nc(-c2ccnc(-c3cccc4c3CC[C@@H]4Nc3nc(OC)c(CNC[C@@H]4CCC(=O)N4)cc3C(F)(F)F)c2Cl)ccc1CNC1CCN(C(C)=O)CC1` [Example 486, (S)-5-((((6-(((S)-4-(5-(((1-Acetylpiperidin-4-yl)amino)methyl)-3′-chloro-6-methoxy-[2,4′-bipyridin]-2′-yl)-2,3-dihydro-1H-inden-1-yl)amino)-2-methoxy-5-(trifluoromethyl)pyridin-3-yl)methyl)amino)methyl)pyrrolidin-2-one] came in with an EC50 of 114 nM.
